Test results as given in ChEMBL document CHEMBL4342404, “Anti-cholinesterase hybrids as multi-target-directed ligands against Alzheimer's disease (1998-2018)” (Bioorg Med Chem, 2019).

What was measured:
Cholinesterase [1] = target: T1, Cholinesterase (Equus caballus, UniProt P81908); assay: Inhibition of equine serum BuChE using S-butyrylthiocholine iodide as substrate preincubated for 6 mins followed by substrate addition and measured up to 180 secs by Ellman's method
Acetylcholinesterase [2] = target: T2, Acetylcholinesterase (Homo sapiens, UniProt P22303); assay: Inhibition of AChE (unknown origin)-induced human amyloid beta 1 to 40 aggregation at 100 uM by thioflavin-T fluorescence method relative to control
Acetylcholinesterase [3] = target: T3, Acetylcholinesterase (Electrophorus electricus, UniProt O42275); assay: Inhibition of electric eel AChE using acetylthiocholine iodide as substrate preincubated for 6 mins followed by substrate addition and measured up to 180 secs by Ellman's method
Acetylcholinesterase [4] = target: T2, Acetylcholinesterase; assay: biochemical
Description: Inhibition of human acetylcholinesterase expressed in HEK 293 cells using acetylthiocholine iodide as substrate by Ellman's method

Cholinesterase [5] = target: T4, Cholinesterase (Homo sapiens, UniProt P06276); assay: Inhibition of human plasma butyrylcholinesterase by Ellman's method
Acetylcholinesterase [6] = target: T2, Acetylcholinesterase; assay: Inhibition of human acetylcholinesterase using acetylthiocholine as substrate pretreated followed by substrate addition and measured after 15 mins by Ellman's method
Acetylcholinesterase [7] = target: T3, Acetylcholinesterase; assay: Inhibition of electric eel AChE using acetylthiocholine iodide as substrate pretreated followed by substrate addition and measured after 2 mins by Ellman's method
Cholinesterase [8] = target: T4, Cholinesterase; assay: Inhibition of human butyrylcholinesterase using butyrylthiocholine iodide as substrate pretreated followed by substrate addition and measured after 15 mins by Ellman's method
Homo sapiens = organism: Homo sapiens; assay: Selectivity index, ratio of IC50 for human AChE to IC50 for human BuChE
Cholinesterase [9] = target: T1, Cholinesterase; assay: Inhibition of equine serum BuChE using butyrylthiocholine iodide as substrate pretreated followed by substrate addition and measured after 2 mins by Ellman's method
Acetylcholinesterase [10] = target: T3, Acetylcholinesterase; assay: Inhibition of electric eel AChE using acetylthiocholine iodide as substrate pretreated for 5 mins followed by substrate addition and measured after 2 mins by Ellman's method
[11] = target: Sodium-dependent serotonin transporter (Homo sapiens, UniProt P31645); assay: Inhibition of SERT (unknown origin) expressed in HEK293 cells assessed as reduction in 5-HT reuptake incubated for 30 mins followed by centrifugation for 15 secs and measured after 30 mins; assay type: cell-based
Acetylcholinesterase [12] = target: T5, Acetylcholinesterase (Rattus norvegicus, UniProt P37136); assay: Inhibition of rat cortex acetylcholinesterase using acetylthiocholine iodide as substrate incubated for 20 mins by Ellman's method
T5 sequence (P37136 whole entry): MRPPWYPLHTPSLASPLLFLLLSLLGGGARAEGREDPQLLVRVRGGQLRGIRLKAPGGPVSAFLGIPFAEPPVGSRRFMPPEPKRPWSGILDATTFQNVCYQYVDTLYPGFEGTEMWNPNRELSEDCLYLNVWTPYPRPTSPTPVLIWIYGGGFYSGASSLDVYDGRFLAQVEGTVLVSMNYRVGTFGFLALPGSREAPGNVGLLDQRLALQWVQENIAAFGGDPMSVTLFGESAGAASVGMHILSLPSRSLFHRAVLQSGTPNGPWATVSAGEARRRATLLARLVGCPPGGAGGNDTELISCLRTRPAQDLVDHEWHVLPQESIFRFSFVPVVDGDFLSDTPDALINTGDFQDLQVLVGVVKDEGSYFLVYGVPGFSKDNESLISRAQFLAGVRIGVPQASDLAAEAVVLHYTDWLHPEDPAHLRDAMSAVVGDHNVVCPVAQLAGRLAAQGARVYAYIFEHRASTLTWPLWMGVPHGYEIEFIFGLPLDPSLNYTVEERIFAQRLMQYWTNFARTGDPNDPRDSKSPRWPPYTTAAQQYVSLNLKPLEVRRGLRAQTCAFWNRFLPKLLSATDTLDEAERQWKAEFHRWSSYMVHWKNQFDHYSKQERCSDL

[13] = target: 5-hydroxytryptamine receptor 1A (Homo sapiens, UniProt P08908); assay: Agonist activity at human 5H1A receptor expressed in HEK293 cells incubated for 60 mins by Eu-cAMP tracer based LANCE ultra cAMP assay; assay type: functional, cell-based
Cholinesterase [14] = target: T1, Cholinesterase
Description: Inhibition of equine serum BuChE preincubated for 15 mins followed by substrate addition and measured after 15 mins by Ellman's method

Acetylcholinesterase [15] = target: T3, Acetylcholinesterase
Description: Inhibition of electric eel AChE using acetylthiocholine iodide as substrate preincubated for 15 mins followed by substrate addition and measured after 15 mins by Ellman's method

Acetylcholinesterase [16] = target: T6, Acetylcholinesterase (Bos taurus, UniProt P23795)
T6 sequence (P23795 whole entry): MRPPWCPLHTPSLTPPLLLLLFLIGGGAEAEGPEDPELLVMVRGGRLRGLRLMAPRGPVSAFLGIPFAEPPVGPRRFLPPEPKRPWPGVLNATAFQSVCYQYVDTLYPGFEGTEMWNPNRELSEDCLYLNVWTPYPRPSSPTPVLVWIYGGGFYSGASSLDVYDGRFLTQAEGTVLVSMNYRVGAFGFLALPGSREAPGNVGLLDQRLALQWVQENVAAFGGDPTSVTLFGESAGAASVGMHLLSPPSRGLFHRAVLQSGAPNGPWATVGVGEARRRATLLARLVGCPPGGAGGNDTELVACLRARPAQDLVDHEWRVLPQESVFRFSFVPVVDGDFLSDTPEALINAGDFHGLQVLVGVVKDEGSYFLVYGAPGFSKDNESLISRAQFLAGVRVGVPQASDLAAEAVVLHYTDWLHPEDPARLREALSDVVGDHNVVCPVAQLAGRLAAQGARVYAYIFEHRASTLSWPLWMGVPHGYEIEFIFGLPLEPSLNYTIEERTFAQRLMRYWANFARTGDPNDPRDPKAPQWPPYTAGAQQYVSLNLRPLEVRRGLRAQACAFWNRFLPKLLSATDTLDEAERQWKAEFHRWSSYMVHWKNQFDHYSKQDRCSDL
Description: Inhibition of bovine erythrocyte acetylcholinesterase using acetylthiocholine as substrate by Ellman's method

Acetylcholinesterase [17] = target: T5, Acetylcholinesterase; assay: Antagonist activity at Acetylcholinesterase in Sprague-Dawley rat phrenic nerve-hemidiaphragm assessed as reversal of d-tubocurarine induced neuromuscular blockade after 15 mins; conditions: read-out: I50
[18] = target: Amyloid-beta precursor protein (Homo sapiens) (UniProt P05067); assay: Inhibition of HFIP pretreated amyloid beta (1-42) (unknown origin) self aggregation at 20 uM incubated for 48 hrs by thioflavin T based fluorescence assay relative to control
[19] = Antioxidant activity assessed as trolox equivalent of AAPH radical scavenging activity at 10 uM preincubated for 10 mins followed by APPH addition and measured every min for 120 mins by ORAC-FL assay relative to trolox; assay type: functional
Cholinesterase [20] = target: T1, Cholinesterase; assay: Inhibition of equine serum BuChE using butyrylthiocholine iodide as substrate pretreated 60 mins followed by substrate addition by Ellman's method
[21] = target: Amyloid-beta precursor protein (Homo sapiens) (UniProt P05067); assay: Inhibition of HFIP pretreated amyloid beta (1-42) (unknown origin) self aggregation at 10 uM incubated for 24 hrs by thioflavin T based fluorescence assay relative to control
Acetylcholinesterase [22] = target: T2, Acetylcholinesterase; assay: Inhibition of human Acetylcholinesterase using acetylthiocholine as substrate preincubated for 20 mins followed by substrate addition by Ellman's method
Cholinesterase [23] = target: T4, Cholinesterase; assay: Inhibition of human serum butyrylcholinesterase using butyrylthiocholine iodide as substrate preincubated for 20 mins followed by substrate addition by Ellman's method
Acetylcholinesterase [24] = target: T2, Acetylcholinesterase; assay: Inhibition of human AChE-induced amyloid beta 1 to 40 (unknown origin) aggregation at 100 uM by thioflavin-T fluorescence method relative to control
Beta-secretase 1 [25] = target: T7, Beta-secretase 1 (Homo sapiens, UniProt P56817); assay: Inhibition human BACE1 expressed in baculovirus expression system at 10 uM using Panvera peptide as substrate preincubated for 60 mins followed by substrate addition and measured after 60 mins by spectrofluorometric assay relative to control
Beta-secretase 1 [26] = target: T7, Beta-secretase 1; assay: Inhibition human BACE1 expressed in baculovirus expression system using Panvera peptide as substrate preincubated for 60 mins followed by substrate addition and measured after 60 mins by spectrofluorometric assay
Acetylcholinesterase [27] = target: T2, Acetylcholinesterase; assay: Inhibition of human erythrocyte acetylcholinesterase using acetylthiocholine as substrate preincubated for 60 mins followed by substrate addition by Ellman's method

T3 sequence (O42275 whole entry): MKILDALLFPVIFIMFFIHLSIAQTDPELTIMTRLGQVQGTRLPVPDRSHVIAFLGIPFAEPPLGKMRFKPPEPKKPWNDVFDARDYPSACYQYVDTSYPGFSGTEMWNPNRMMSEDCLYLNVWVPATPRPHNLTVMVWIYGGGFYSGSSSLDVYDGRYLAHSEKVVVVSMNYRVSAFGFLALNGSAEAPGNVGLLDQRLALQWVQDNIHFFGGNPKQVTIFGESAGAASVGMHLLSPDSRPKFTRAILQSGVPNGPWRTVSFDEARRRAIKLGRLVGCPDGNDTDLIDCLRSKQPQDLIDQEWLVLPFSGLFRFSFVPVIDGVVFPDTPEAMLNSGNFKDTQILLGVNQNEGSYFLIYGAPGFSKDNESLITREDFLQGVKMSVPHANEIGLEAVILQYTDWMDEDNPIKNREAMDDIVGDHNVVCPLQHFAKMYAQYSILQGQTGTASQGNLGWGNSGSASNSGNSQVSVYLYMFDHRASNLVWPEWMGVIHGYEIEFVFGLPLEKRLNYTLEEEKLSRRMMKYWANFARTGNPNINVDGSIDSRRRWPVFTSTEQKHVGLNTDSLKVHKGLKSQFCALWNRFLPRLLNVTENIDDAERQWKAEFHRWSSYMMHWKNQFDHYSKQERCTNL
T2 sequence (P22303 whole entry): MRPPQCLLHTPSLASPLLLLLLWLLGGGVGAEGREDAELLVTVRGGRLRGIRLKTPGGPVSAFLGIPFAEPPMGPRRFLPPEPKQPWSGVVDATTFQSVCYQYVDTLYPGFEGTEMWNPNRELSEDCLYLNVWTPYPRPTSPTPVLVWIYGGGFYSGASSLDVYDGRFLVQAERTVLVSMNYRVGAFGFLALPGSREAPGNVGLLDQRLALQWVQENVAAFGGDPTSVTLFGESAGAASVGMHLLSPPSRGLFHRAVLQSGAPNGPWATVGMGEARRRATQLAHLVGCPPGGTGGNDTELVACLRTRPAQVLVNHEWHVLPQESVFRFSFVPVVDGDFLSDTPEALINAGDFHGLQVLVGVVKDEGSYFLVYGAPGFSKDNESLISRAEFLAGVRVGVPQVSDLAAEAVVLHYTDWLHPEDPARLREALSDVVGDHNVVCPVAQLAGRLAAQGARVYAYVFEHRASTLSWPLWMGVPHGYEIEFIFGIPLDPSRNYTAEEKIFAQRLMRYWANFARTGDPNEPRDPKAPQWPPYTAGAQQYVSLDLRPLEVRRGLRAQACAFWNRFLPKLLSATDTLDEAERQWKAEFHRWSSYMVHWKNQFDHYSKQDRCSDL
T1 sequence (P81908 whole entry): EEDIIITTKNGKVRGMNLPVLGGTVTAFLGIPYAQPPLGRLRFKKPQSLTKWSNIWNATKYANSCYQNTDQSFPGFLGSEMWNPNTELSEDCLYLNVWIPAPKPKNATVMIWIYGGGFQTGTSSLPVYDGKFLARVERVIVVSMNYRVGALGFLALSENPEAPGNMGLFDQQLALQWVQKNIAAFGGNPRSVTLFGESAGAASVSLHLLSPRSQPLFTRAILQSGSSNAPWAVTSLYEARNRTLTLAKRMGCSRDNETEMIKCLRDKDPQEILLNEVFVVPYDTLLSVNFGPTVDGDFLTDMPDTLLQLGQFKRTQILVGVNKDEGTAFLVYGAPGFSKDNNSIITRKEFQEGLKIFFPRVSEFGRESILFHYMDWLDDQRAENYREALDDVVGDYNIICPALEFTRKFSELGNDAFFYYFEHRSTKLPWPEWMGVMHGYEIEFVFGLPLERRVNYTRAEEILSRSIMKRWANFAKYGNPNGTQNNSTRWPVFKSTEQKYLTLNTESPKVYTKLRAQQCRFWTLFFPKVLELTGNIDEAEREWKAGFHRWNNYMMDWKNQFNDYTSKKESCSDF
T4 sequence (P06276 whole entry): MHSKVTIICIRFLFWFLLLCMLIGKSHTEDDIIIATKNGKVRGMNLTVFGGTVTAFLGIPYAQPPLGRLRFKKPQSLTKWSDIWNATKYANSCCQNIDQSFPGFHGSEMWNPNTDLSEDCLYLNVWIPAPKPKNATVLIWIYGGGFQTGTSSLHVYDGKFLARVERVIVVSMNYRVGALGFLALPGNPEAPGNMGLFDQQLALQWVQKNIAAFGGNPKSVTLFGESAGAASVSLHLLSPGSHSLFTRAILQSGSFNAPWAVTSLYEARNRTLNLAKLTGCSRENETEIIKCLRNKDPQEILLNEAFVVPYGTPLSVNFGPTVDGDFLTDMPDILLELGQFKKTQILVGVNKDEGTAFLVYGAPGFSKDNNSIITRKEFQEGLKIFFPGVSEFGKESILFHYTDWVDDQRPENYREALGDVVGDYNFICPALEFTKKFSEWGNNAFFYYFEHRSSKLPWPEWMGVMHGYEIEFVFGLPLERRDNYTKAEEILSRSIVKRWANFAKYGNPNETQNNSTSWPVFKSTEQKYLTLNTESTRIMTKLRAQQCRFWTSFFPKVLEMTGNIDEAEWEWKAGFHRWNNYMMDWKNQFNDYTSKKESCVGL
T7 sequence (P56817 whole entry): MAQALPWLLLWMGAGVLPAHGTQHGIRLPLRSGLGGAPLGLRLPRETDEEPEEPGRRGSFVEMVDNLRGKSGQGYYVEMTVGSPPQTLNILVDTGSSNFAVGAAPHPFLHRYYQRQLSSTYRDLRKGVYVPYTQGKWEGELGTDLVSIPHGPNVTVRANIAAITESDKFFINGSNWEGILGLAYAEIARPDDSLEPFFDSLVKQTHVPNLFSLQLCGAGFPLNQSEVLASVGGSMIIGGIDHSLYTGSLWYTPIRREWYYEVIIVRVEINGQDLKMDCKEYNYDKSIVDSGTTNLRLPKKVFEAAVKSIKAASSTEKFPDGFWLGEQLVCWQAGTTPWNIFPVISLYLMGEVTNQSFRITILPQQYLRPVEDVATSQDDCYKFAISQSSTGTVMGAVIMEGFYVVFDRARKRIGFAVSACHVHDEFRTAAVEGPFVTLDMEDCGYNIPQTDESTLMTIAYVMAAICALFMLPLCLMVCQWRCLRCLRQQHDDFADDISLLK
Sequence of Amyloid-beta precursor protein (Homo sapiens) (P05067 whole entry): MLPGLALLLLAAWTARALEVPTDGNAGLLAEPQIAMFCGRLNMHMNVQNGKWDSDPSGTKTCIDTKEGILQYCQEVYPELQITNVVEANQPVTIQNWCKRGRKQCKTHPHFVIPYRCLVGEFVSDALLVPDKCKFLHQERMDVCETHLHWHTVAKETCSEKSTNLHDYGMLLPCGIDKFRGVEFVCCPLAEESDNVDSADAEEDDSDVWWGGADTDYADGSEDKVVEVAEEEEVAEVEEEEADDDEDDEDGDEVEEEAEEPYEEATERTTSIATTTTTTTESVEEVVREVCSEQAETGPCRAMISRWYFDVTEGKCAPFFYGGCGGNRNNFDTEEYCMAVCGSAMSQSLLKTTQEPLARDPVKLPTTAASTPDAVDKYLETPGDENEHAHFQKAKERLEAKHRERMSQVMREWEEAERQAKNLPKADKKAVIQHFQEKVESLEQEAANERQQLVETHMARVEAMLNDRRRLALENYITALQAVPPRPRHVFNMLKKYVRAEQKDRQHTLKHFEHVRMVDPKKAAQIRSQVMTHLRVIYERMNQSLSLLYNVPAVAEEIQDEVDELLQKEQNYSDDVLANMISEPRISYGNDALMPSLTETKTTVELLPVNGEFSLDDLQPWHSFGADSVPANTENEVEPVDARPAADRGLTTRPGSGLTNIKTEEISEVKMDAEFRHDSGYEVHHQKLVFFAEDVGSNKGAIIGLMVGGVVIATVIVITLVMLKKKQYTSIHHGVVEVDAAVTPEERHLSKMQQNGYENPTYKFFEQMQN
Sequence of Sodium-dependent serotonin transporter (P31645 whole entry): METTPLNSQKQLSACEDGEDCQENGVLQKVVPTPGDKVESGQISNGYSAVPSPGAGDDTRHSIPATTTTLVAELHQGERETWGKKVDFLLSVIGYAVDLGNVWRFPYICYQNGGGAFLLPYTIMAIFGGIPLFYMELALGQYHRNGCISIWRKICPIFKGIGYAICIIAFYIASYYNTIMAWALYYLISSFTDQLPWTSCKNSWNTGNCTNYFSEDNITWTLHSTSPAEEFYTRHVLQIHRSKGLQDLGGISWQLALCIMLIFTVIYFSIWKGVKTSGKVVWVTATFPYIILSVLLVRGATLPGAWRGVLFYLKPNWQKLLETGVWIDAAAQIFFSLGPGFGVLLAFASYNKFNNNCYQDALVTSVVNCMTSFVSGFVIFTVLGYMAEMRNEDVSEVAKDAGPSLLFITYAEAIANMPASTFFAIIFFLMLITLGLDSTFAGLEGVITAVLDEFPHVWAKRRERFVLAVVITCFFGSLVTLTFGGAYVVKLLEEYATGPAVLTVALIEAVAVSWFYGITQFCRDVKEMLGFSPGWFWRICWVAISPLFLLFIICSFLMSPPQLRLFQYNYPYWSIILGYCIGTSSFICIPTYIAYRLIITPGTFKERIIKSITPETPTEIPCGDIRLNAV
Sequence of 5-hydroxytryptamine receptor 1A (P08908 whole entry): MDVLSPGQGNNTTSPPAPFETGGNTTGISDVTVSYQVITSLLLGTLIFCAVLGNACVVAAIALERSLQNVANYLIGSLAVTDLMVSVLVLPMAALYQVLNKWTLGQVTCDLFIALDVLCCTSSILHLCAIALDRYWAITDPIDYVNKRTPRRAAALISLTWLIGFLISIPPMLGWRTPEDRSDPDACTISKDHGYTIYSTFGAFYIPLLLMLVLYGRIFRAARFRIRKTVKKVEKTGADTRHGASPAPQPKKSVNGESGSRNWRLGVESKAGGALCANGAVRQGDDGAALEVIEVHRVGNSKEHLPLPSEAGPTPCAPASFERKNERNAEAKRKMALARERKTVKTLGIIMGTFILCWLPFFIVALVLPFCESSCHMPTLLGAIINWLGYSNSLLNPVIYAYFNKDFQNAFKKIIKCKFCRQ

O=C(NCCCCCCNc1c2c(nc3ccccc13)CCCC2)c1cc(O)c2c(c1)C(=O)c1cccc(O)c1C2=O
IC50 (Cholinesterase [1]): 0.2 µM | inhibition (Acetylcholinesterase [2]): 70.2% | IC50 (Acetylcholinesterase [3]): 0.0273 µM

O=C(c1ccc(OCCCc2cnc[nH]2)cc1)C1CC1 [CIPROXIFAN]
IC50 (Acetylcholinesterase [4]): 86.1 µM | IC50 (Cholinesterase [5]): 77.3 µM

O=C(/C=C/c1ccc(OCc2ccccc2)cc1)NCCNc1c2c(nc3ccccc13)CCCC2
IC50 (Acetylcholinesterase [6]): 0.0606 µM | IC50 (Acetylcholinesterase [7]): 0.0295 µM | IC50 (Cholinesterase [8]): 0.0861 µM | Selectivity Index (Homo sapiens): 0.7 | IC50 (Cholinesterase [9]): 0.0426 µM

CN(C)C(=O)Oc1ccccc1-c1nc2ccccc2s1
IC50 (Acetylcholinesterase [10]): 20.9 µM

N#Cc1ccc2[nH]cc(CCCCN3CCN(c4c5c(nc6ccccc46)CCC5)CC3)c2c1
IC50 [11]: 0.0763 µM | IC50 (Acetylcholinesterase [12]): 3.32 µM | EC50 [13]: 0.107 µM

O=C(NCCc1c[nH]c2ccccc12)c1cc(-c2ccccc2Cl)on1
IC50 (Cholinesterase [14]): 46.1 µM | IC50 (Acetylcholinesterase [15]): 29.5 µM

CC1=C[C@@H]2Cc3nc4cc(F)ccc4c(N)c3[C@H](C1)C2 (racemic)
IC50 (Acetylcholinesterase [16]): 0.085 µM | IC50 (Acetylcholinesterase [17]): 0.008 µM

Oc1ccc(/C=C/c2cc(O)c3ncccc3c2)cc1
inhibition [18]: 71.7% | Ratio (umolequiv/umol) [19]: 2.18

C#CCN(C)C(C)Cc1cccc(OC(=O)N(C)CCCCCC)c1 (racemic)
IC50 (Cholinesterase [20]): 0.72 µM

c1ccc2c(NCc3ccc(-c4ccc(CNc5c6c(nc7ccccc57)CCCC6)cc4)cc3)c3c(nc2c1)CCCC3
inhibition [21]: 75.5% | IC50 (Acetylcholinesterase [22]): 0.00361 µM | IC50 (Cholinesterase [23]): 0.00086 µM | inhibition (Acetylcholinesterase [24]): 61.8% | inhibition (Beta-secretase 1 [25]): 89.7% | IC50 (Beta-secretase 1 [26]): 2.77 µM

C#CCN(C)C(C)Cc1cccc(OC(=O)N(C)CCCCCC)c1 (single isomer, unassigned; (-))
IC50 (Acetylcholinesterase [27]): 3.4 µM

C/C=C1\C2C=C(C)CC1c1c(nc3ccccc3c1N)C2 (racemic)
IC50 (Acetylcholinesterase [16]): 0.32 µM
